For data set [1], the system named is children, most of whom were neurologically multiply disabled. The following applies: 2 to 10 mg of oral melatonin at bedtime; cited from earlier work.
Another data set relates to children. Particulars: cited from earlier work.
Data set [2] deals with patients in the age ranging from 6 to 14 years. Kind of data set: pilot study, effect of melatonin on sleep latency (sleep logs, CGI), melatonin versus placebo. In kind it is in vivo, human. As for the experimental part:
In a pilot study, nine patients in the age ranging from 6 to 14 years were run through a protocol to determine feasibility. A sample of four sleep logs, illustrating response at each of the protocol was determined. […] Patients tolerated the protocol, and parents were able to reliably complete the sleep logs. Some parents had to be trained to do so over several visits. Parents whose children fell asleep extremely late, could not tolerate staying up to find out when they actually fell asleep, and had to be excluded.

Take `COc1ccc2[nH]cc(CCNC(C)=O)c2c1` [melatonin, N-acetyl-5-methoxytryptamine]: in data set [1], the adverse side-effects result is “no adverse side-effects”; the “health, behavioural and social benefits” value is “significant”. Moreover, in the data set on children (children who received melatonin for several years), the “adverse effects on long-term use” value is on record as “without adverse effects”. Moreover, the “average onset of sleep after melatonin administration” value with children (children, 2.5 to 7.5 mg PO once daily before expected bedtime) is at most 1 h. Moreover, the CGI data entry in data set [2] (melatonin versus placebo) is “not significant”. Further, the “difference in response between the melatonin and placebo” value in data set [2] (nine patients, sleep logs, with sleep hygiene) is reported as “significant difference in response (p=0.03)”.

Source of the values: US20040097577A1 (priority 2001, published 2004).
